This assay addresses T1, HSP90α (Homo sapiens, UniProt P07900).
T1 construct: purchased Stressgen Lot B506492
As to the kind of experiment: HSP90 binding assay (fluorescent ELISA, competition with biotinylated Geldanamycin). To be noted: reported as range of IC50's. The protocol: The biochemical assay is described as follows.
Purified HSP90α […] was purchased from Stressgen Lot B506492. Single use aliquots of the 1.15 mg/ml stock were prepared and stored at −80° C. to avoid multiple freeze-thaw cycles.
A Nunc Maxisorb plate was coated overnight at 4° C. with 200 ng of HSP90/well dissolved in DPBS. The following day the plates were washed with TBST and blocked for 2 h at room temperature with blocking buffer (20 mM HEPES pH 7.3, 1 mM EDTA, 5 mM MgCl2, 100 mM KCl, 5% BSA). Blocking buffer was removed by washing plates with TBST, and test compounds dissolved in assay buffer (20 mM HEPES pH 7.3, 1 mM EDTA, 5 mM MgCl2, 100 mM KCl, 1% BSA) were added to plate. […] The reaction is incubated for 60 minutes at room temperature. […] Competitive inhibitory compounds will block this interaction from occurring.
The reactions were stopped by washing the plate with TBST. The binding of the bio-GM is detected by the addition of an Alkaline Phosphatase tagged Streptavidin molecule. A TBST wash eliminates any unbound detection agent, and the Alkaline Phosphate substrate Attophos is introduced. This substrate generates a fluorescent signal at […] when excited at […]. These plates can be monitored on either a Victor 5 or Perkin Elmer Envision multilabel reader.
In turn, `COc1ccc(C(C)C)cc1-c1cc(-c2nnnn2C2CCN(C(=O)OC(C)(C)C)C2)c(O)cc1O` (stereo not shown) [Compound 42, 3-[5-(4,6-Dihydroxy-5′-isopropyl-2′-methoxy-biphenyl-3-yl)-tetrazol-1-yl]-pyrrolidine-1-carboxylic Acid Tert-Butyl Ester] returned an IC50 of 10 to 50 µM.

Regarding `CCCCn1nnnc1-c1cc(-c2cccc(C(=O)N(CCO)CC(C)CC)c2)c(O)cc1O` (stereo not shown) [Compound 61], the IC50 is greater than 50 µM. For “5-[1-(3,3-Dimethyl-butyl)-1H-tetrazol-5-yl]-5′-isopropyl-2′-methoxy-biphenyl-2,4-diol [Compound 96]”, the IC50 fell in the range of 1 to 10 µM. On to `COCCCn1nnnc1-c1cc(-c2ccc(F)cc2F)c(O)cc1O` [Compound 84], for which the IC50 was greater than 50 µM.

`COCCCn1nnnc1-c1cc(-c2cccc(OC(F)(F)F)c2)c(O)cc1O` [Compound 17] returned a concentration for half-maximal inhibition (IC50) of 1 to 10 µM. For “4-[1-(3-Methoxy-propyl)-1H-tetrazol-5-yl]-6-naphthalen-2-yl-benzene-1,3-diol [Compound 78]”, the IC50 was in the range of 10 to 50 µM. Molecule `CCCCn1nnnc1-c1cc(-c2cccc(C(=O)NCCCN3CCCC3)c2)c(O)cc1O` [Compound 55] gave an IC50 greater than 50 µM. The result for `CCNC(=O)N1CCC(n2nnnc2-c2cc(-c3cc(C(C)C)ccc3OC)c(O)cc2O)CC1` [Compound 39] reads 1 to 10 µM; that for `COc1ccc(C(=O)N2CCC(n3nnnc3-c3cc(-c4cc(C(C)C)ccc4OC)c(O)cc3O)CC2)cc1` [Compound 37, {4-[5-(4,6-dihydroxy-5′-isopropyl-2′-methoxy-biphenyl-3-yl)-tetrazol-1-yl]-piperidin-1-yl}-(4-methoxy-phenyl)-methanone], 1 to 10 µM. Regarding `COCCCn1nnnc1-c1cc(-c2cccc(C(=O)NCCC3CCCN3C)c2)c(O)cc1O` (stereo not shown) [Compound 68, 2′,4′-Dihydroxy-5′-[1-(3-methoxypropyl)-1H-tetrazol-5-yl]-biphenyl-3-carboxylic acid [2-(1-methyl-pyrrolidin-2-yl)-ethyl]-amide], the IC50 was greater than 50 µM. `COCCn1nnnc1-c1cc(-c2cc(C(C)C)ccc2OC)c(O)cc1O` [Compound 9] returned an IC50 of 1 to 10 µM.

As to `COCCCn1nnnc1-c1cc(-c2cccc(C(=O)N(C)CCN(C)C)c2)c(O)cc1O` [Compound 63], the concentration for half-maximal inhibition (IC50) was greater than 50 µM. In the case of `CCCCn1nnnc1-c1cc(-c2cccc(C(=O)N3CCC(N4CCCC4)CC3)c2)c(O)cc1O` [Compound 49, [5′-(1-Butyl-1H-tetrazol-5-yl)-2′,4′-dihydroxy-biphenyl-3-yl]-(4-pyrrolidin-1-yl-piperidin-1-yl)-methanone], the IC50 is greater than 50 µM. The result for `CCCCn1nnnc1-c1cc(-c2cccc(C(=O)NCCC3CCCN3C)c2)c(O)cc1O` (stereo not shown) [Compound 59] reads greater than 50 µM; that for `CCCCn1nnnc1-c1cc(-c2cccc(C(=O)NCCN(C)C)c2)c(O)cc1O` [Compound 58], greater than 50 µM. The same measure for `CCC(C)CN(CCO)C(=O)c1cccc(-c2cc(-c3nnnn3CCCOC)c(O)cc2O)c1` (stereo not shown) [Compound 71]: greater than 50 µM; for `COc1ccc(C(C)C)cc1-c1cc(-c2nnnn2C2CCNCC2)c(O)cc1O` [Compound 41]: 1 to 10 µM; for “5′-(1-Butyl-1H-tetrazol-5-yl-2′,4′-dihydroxy-biphenyl-3-carboxylic acid (3-dimethylamino-propyl)-methyl-amide [Compound 52]”: greater than 50 µM. The same measure for `COc1ccc(C(C)C)cc1-c1cc(-c2nnnn2-c2ccccc2)c(O)cc1O` [Compound 120]: less than 1 µM; for `CCS(=O)(=O)N1CCN(C(=O)c2cccc(-c3cc(-c4nnnn4CCCOC)c(O)cc3O)c2)CC1` [Compound 66, {2′,4′-Dihydroxy-5′-[1-(3-methoxy-propyl)-1H-tetrazol-5-yl]-biphenyl-3-yl}-(4-ethanesulfonyl-piperazin-1-yl)-methanone]: greater than 50 µM; for `COCCCn1nnnc1-c1cc(-c2cccc(C(=O)NC(C)COC)c2)c(O)cc1O` (stereo not shown) [Compound 62]: greater than 50 µM. Turning to `COCCCn1nnnc1-c1cc(Br)c(O)cc1O` [Compound 25], the IC50 was greater than 50 µM. For the molecule `CCN1CCC(n2nnnc2-c2cc(-c3cc(C(C)C)ccc3OC)c(O)cc2O)CC1` [Compound 38], the IC50 fell in the range of 1 to 10 µM. Molecule `CCCCn1nnnc1-c1cc(-c2cccc(C(=O)N3CCN(S(=O)(=O)CC)CC3)c2)c(O)cc1O` [Compound 53, [5′-(1-Butyl-1H-tetrazol-5-yl)-2′,4′-dihydroxy-biphenyl-3-yl]-(4-ethanesulfonyl-piperazin-1-yl)-methanone] gave a concentration for half-maximal inhibition (IC50) greater than 50 µM. The molecule `CCc1ccccc1-c1cc(-c2nnnn2CCCOC)c(O)cc1O` [Compound 75, 2′-Ethyl-5-[1-(3-methoxy-propyl)-1H-tetrazol-5-yl]-biphenyl-2,4-diol] yielded a half-inhibitory concentration (IC50) greater than 50 µM. In the case of `CCCCn1nnnc1-c1cc(-c2cccc(C(=O)N3CCCC(C(=O)N(CC)CC)C3)c2)c(O)cc1O` (stereo not shown) [Compound 51], the IC50 was greater than 50 µM. The result for `CCCCn1nnnc1-c1cc(-c2cccc(C(=O)O)c2)c(O)cc1O` [Compound 46] reads greater than 50 µM; that for `CCCCn1nnnc1-c1cc(-c2cccc(C(=O)NC(C)CN(C)C)c2)c(O)cc1O` (stereo not shown) [Compound 60, 5′-(1-Butyl-1H-tetrazol-5-yl)-2′,4′-dihydroxy-biphenyl-3-carboxylic acid (2-dimethylamino-1-methyl-ethyl)-amide], greater than 50 µM. On to `COCCCn1nnnc1-c1cc(-c2cccc(C(=O)O)c2)c(O)cc1O` [Compound 47], for which the IC50 is greater than 50 µM. The result for `CCOc1cccc(-c2cc(-c3nnnn3CCCOC)c(O)cc2O)c1` [Compound 77, 3′-Ethoxy-5-[1-(3-methoxy-propyl)-1H-tetrazol-5-yl]-biphenyl-2,4-diol] reads 10 to 50 µM; that for `COCCCn1nnnc1-c1cc(-c2ccc(C(F)(F)F)cc2)c(O)cc1O` [Compound 18, 5-[1-(3-methoxy-propyl)-1H-tetrazol-5-yl]-4′-trifluoromethyl-biphenyl-2,4-diol], greater than 50 µM. The same measure for `COCCCn1nnnc1-c1cc(-c2cccc(C(C)C)c2)c(O)cc1O` [Compound 76, 3′-Isopropyl-5-[1-(3-methoxy-propyl)-1H-tetrazol-5-yl]-biphenyl-2,4-diol]: 10 to 50 µM. The molecule `COCCn1nnnc1-c1cc(-c2cccc(OC(F)(F)F)c2)c(O)cc1O` [Compound 11] yielded an IC50 greater than 50 µM. Molecule `COCCCn1nnnc1-c1cc(-c2cccc(C(=O)N3CCN(CCN4CCCC4)CC3)c2)c(O)cc1O` [Compound 72, {2′,4′-Dihydroxy-5′-[1-(3-methoxy-propyl)-1H-tetrazol-5-yl]-biphenyl-3-yl}-[4-(2-pyrrolidin-1-yl-ethyl)-piperazin-1-yl]-methanone] displayed an IC50 greater than 50 µM.

Take `CCCCn1nnnc1-c1cc(-c2cccc(C(=O)NC(C)COC)c2)c(O)cc1O` (stereo not shown) [Compound 48, 5′-(1-Butyl-1H-tetrazol-5-yl)-2′,4′-dihydroxy-biphenyl-3-carboxylic acid (2-methoxy-1-methyl-ethyl)-amide]: the IC50 is greater than 50 µM. Consider `COCCCn1nnnc1-c1cc(-c2ccccc2C(F)(F)F)c(O)cc1O` [Compound 13, 5-[1-(3-Methoxy-propyl)-1H-tetrazol-5-yl]-2′-trifluoromethyl-biphenyl-2,4-diol], for which the IC50 was greater than 50 µM. As to `COCCn1nnnc1-c1cc(-c2cccc(C(F)(F)F)c2)c(O)cc1O` [Compound 12], the IC50 was greater than 50 µM.

The values are drawn from patent US7932279B2 (ArQule, Inc., priority 2007, dated 2011).
